How the values were obtained:
Type in all cases: biochemical
β-glucosidase GBA2 = biological target: T1, β-glucosidase GBA2 (Homo sapiens, UniProt Q9HCG7); experiment: in vitro apparent IC50, GBA2-overexpressing HEK293T lysate; details: apparent IC50, pH 5.8, mean ± SD
T1 construct: expressed in transfected cells; host or cells: HEK293T
T1 sequence (Q9HCG7 1-927): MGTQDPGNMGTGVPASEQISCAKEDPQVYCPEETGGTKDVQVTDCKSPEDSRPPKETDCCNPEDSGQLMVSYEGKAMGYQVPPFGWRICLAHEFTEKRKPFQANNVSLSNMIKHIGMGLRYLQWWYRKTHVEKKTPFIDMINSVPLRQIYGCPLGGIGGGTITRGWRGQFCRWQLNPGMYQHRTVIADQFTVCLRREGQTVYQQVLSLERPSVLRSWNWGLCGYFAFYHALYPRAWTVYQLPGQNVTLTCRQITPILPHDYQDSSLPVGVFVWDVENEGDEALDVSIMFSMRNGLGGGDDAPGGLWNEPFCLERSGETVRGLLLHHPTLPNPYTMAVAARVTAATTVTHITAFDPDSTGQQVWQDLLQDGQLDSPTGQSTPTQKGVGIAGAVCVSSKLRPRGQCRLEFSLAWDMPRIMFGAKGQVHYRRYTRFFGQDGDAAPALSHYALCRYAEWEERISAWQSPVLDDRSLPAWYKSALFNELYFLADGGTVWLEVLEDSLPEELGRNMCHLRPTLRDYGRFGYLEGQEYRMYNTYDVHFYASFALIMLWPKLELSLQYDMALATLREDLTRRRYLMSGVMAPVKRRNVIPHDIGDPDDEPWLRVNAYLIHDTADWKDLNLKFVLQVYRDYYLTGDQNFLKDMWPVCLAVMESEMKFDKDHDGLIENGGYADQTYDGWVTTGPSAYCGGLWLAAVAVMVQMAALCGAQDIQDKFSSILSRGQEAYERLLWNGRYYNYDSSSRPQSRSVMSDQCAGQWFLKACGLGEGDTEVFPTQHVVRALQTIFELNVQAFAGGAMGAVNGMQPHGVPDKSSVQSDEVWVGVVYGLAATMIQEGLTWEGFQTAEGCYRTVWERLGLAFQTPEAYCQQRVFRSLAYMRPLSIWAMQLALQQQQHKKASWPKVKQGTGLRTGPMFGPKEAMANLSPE

[1] = biological target: α-glucosidase GAA (Myozyme) (Homo sapiens, UniProt P10253); experiment: in vitro apparent IC50, GAA (Myozyme), 4-MU-α-D-glucopyranoside; design: purchased Sanofi Genzyme; details: Myozyme 47 nM, pH 4.0, 30 min preincubation, mean ± SD
[2] = biological target: T2, β-glucosidase GBA1 (Cerezyme) (Homo sapiens, UniProt P04062, R534H); experiment: in vitro apparent IC50, GBA1 (Cerezyme), 4-MU-β-D-glucopyranoside; details: pH 5.2, mean ± SD, read-out: in vitro GBA IC50
T2 construct: purchased
T2 sequence (P04062 40-536 R534H): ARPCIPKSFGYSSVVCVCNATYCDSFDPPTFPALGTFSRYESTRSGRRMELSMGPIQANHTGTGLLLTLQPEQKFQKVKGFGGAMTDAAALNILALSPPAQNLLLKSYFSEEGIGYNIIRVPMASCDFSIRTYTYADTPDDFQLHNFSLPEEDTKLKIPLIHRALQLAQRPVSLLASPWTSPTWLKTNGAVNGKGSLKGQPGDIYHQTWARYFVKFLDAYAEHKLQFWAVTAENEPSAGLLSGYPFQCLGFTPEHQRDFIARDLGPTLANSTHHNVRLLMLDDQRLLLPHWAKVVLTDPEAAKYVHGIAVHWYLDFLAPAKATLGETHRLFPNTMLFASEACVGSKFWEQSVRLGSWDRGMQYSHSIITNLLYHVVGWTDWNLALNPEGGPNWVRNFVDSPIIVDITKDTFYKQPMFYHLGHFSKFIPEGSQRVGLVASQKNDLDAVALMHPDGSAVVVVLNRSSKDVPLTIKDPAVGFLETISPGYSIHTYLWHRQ

## O=S1(=O)N[C@H]2[C@H](CO)[C@@H](O)[C@H](O)[C@@H](O)[C@H]2O1 [compound 6]
β-glucosidase GBA2
  IC50: > 500 µM
[1]
  IC50: 112 ± 2.54 µM
[2]
  IC50: > 500 µM

## O=S1(=O)N[C@@H]2[C@H](O)[C@@H](O)[C@H](O)[C@@H](CO)[C@@H]2O1 [compound 4, 1,6-epi-cyclophellitol cyclosulfamidate]
β-glucosidase GBA2
  IC50: > 500 µM
[1]
  IC50: 5.17 ± 0.195 µM
[2]
  IC50: > 500 µM

Reference: PMC9389588, “1,6-epi-Cyclophellitol Cyclosulfamidate Is a Bona Fide Lysosomal α-Glucosidase Stabilizer for the Treatment of Pompe Disease” (Journal of the American Chemical Society, 2022)
